Read-outs that look alike come from different tables or passages of the source.
Legend:
[1] = system: developmental or reproductive toxicity in animal or human; conditions: cited from earlier work
[2] = renal clearance, Fup*GFR (PBK parameter); conditions: method Fup*GFR
[3] = system: human developmental and reproductive toxicity; conditions: cited from earlier work
[4] = Human in vivo PK data: concentration-dose ratio (CDR) and toxicokinetic variability factor (TKVF); parameters: 95% percentile (Conc-dose-ratio): unit not given here;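 further: Literature-pooled human in vivo PK data, plasma, serum or cord blood concentrations per daily dose, weighted by study population size across non-pregnant, pregnant and fetal groups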
[5] = cited from earlier work
[6] = Solubility pH 7; median; ref [5],[8]; cited from earlier work
rats = conditions: ref Supplementary Data Sheet 1, cited from earlier work
[7] = DNT study; ref Supplementary Data Sheet 1; cited from earlier work
[8] = evidence of developmental or reproductive toxicity in animal or human, irrespective of exposure/dose, ref Supplementary Data Sheet 1
[9] = Non-Pregnant, combined (oral+IV)
[10] = two multigeneration rat studies

SMILES: CCCCCCC(O)CO (stereo not shown) [1,2-Octanediol]
- DART Hazard Call [1, 8]: Non Toxic
- Renal Clearance [2]: 5.129 L/h
- Exposure risk (DART risk classification) ([3]; Cosmetic, 5% in body lotion, dermal, ref Supplementary Data Sheet 1): Low Risk

SMILES: COc1ccc(C(=O)c2ccccc2)c(O)c1 [2-Hydroxy-4-methoxybenzophenone]
- 95% percentile (Conc-dose-ratio) ([4]; Non-Pregnant, dermal): 0.000717
- Mean Conc-dose -ratio ([4]; Non-Pregnant, dermal): 0.00025 uM/(mg/day]
- TKVF ([4]; Non-Pregnant, dermal): 2.84
- DART Hazard Call [1, 8]: Non Toxic
- MoS ([5]; existent consumer risk assessment for the cosmetic use scenario, ref SCCS / SCCP / SCCNFP): Used safely in cosmetic products. Existent consumer risk assessment from the SCCS. MoS 38.
- Exposure risk (DART risk classification) ([3]; Cosmetic, 6% in sunscreen, dermal, ref Supplementary Data Sheet 1): Low Risk

SMILES: Cn1c(=O)c2c(ncn2C)n(C)c1=O [Caffeine]
- TKVF ([4]; female, human, in vivo): 2.42
- TKVF ([4]; female, human, in vivo, po): 2.42
- TKVF ([4]; human, in vivo, po): 2.84

SMILES: O=S(=O)(O)NC1CCCCC1 [Cyclamate]
- ADI ([5]; ref FSCJ, EFSA, SCF, JMPR as named in the cell): ADI set by SCF (7mg/kg/day)
- Exposure risk (DART risk classification) ([3]; Dietary, 420 mg/daily, oral, ref Supplementary Data Sheet 1): Low Risk
- Aqueous Solubility [6]: 84.5 mg/mL

SMILES: O=P1(N(CCCl)CCCl)NCCCO1 (stereo not shown) [Cyclophosphamide]
- CDR fold difference to non-pregnant ([4]; Non-Pregnant population (reference)): 1.00
- TKVF ([4]; Non-Pregnant population, TKVF95 = p95 / weighted mean concentration-dose ratio): 3.15
- 95% percentile (Conc-dose-ratio) [4, 9]: 0.09
- Fold Difference to non-pregnant [4, 9]: 1.00
- Mean Conc-dose -ratio [4, 9]: 0.030 uM/(mg/day]
- TKVF [4, 9]: 3.15
- CDR fold difference to non-pregnant ([4]; Pregnant population): 2.85
- Fold Difference to non-pregnant ([4]; Pregnant, IV): 2.85
- Mean Conc-dose -ratio ([4]; Pregnant, IV): 0.084 uM/(mg/day]
- DART Hazard Call [1, 8]: Toxic
- Exposure risk (DART risk classification) ([3]; Pharmaceutical, 60 mg/daily, oral, ref Supplementary Data Sheet 1): High Risk

SMILES: CC1(C)C(C=C(Cl)Cl)C1C(=O)OC(C#N)c1cccc(Oc2ccccc2)c1 (stereo not shown) [Cypermethrin]
- NOAEL (rats; 15-day intact adult male rat assay, decreased body weight gain): 6 mg/kg bw per day
- reproductive NOAEL (rats; two multigeneration rat studies, decreased survival of pups at birth): 10 mg/kg bw per day
- offspring NOAEL (rats; [10]): 10 mg/kg bw per day
- parental NOAEL (rats; [10]): 10 mg/kg bw per day
- developmental NOAEL [7]: 15 mg/kg bw per day

SMILES: CCN(CC)C(=O)c1cccc(C)c1 [DEET]
- 95% percentile (Conc-dose-ratio) ([4]; in vivo): 0.0013
- Mean Conc-dose -ratio ([4]; in vivo): 0.00066 uM/(mg/day]
- TKVF ([4]; in vivo): 1.97
- DART Hazard Call [1]: Uncertain
- Exposure risk (DART risk classification) [3]: Low Risk

SMILES: C[C@@H]1C[C@H]2[C@@H]3CCC4=CC(=O)C=C[C@]4(C)[C@@]3(F)[C@@H](O)C[C@]2(C)[C@@]1(O)C(=O)CO [Dexamethasone]
- CDR fold difference to non-pregnant ([4]; female, human, in vivo): 1.50
- TKVF ([4]; female, human, in vivo): 2.51
- CDR fold difference to non-pregnant ([4]; human, in vivo): 1.00
- TKVF ([4]; human, in vivo): 1.99
- DART Hazard Call [1, 8]: Toxic

SMILES: CC/C(=C(/CC)c1ccc(O)cc1)c1ccc(O)cc1 [Diethylstilbestrol (DES), Diethylstilbestrol]
- DART Hazard Call [1, 8]: Toxic
- Exposure risk (DART risk classification) ([3]; Pharmaceutical, 0.5 mg/daily, oral, ref Supplementary Data Sheet 1): High Risk

Source: publication PMC12256496, “An advancement in developmental and reproductive toxicity (DART) risk assessment: evaluation of a bioactivity and exposure-based NAM toolbox” (Frontiers in Toxicology, 2025)
